The series can be described thus: Drug release study of model drugs from corn zein fibers and films in phosphate buffer. The class given is physicochemical. Particulars: for n value from the Korsmeyer-Peppas equation of model drug release profile / release percentage at the 15-minute time point: 20 mM phosphate buffer (pH 7.0); for n value from the Korsmeyer-Peppas equation of model drug release profile: up to 96 hours; for release percentage at the 15-minute time point: fibers. How it is done:
Approximately 0.05 g of film or fiber mesh was placed in 50 mL of 20 mM phosphate buffer (pH 7.0). Drug release was done in triplicate under conditions of dynamic flow. At the appropriate time points (15 minutes, 30 minutes, 1 hour, 2 hours, 3 hours, 4 hours, 5 hours, 24 hours, 48 hours, 96 hours), aliquots of solution were removed from the samples. The absorbance of each aliquot was measured at the appropriate wavelength for the corresponding model drug using a SpectraMax i3x Plate Reader (Molecular Devices LLC, Sunnyvale, Calif., USA). Absorbance was related to concentration and the values from the three aliquots were averaged and graphed as a function of time. Upon completion of the study, fibers were extracted from solution via suction filtration and dried overnight. Release profiles were then fit with the Krosmeyer-Peppas release model shown in equation 1: […]
To further investigate the potential effectiveness of the supramolecular systems for transdermal drug delivery, drug release of the model drugs incorporated in either films or fibers was simulated in 0.1% w/v 20 mM phosphate buffer (pH 7.0) for different times. Shown in FIGS. 16A-16B are the normalized release profiles for the fiber and film models, respectively. Data points were normalized based on the amount of drug released at 96 hours. No significant drug release was observed above 96 hours for all samples. […] Alcian blue is a very large molecule (MW 1.3 kDa), so it is reasonable to assume its bulkiness prevents it from being efficiently integrated into the zein structure. […] This can be attributed to the nature of the method used to fabricate the films. The corn zein was exposed to formic acid for a longer period of time during film synthesis than during fiber generation. During this time, the formic acid may have severed some of the hydrogen bonds of the corn zein structure, allowing the integration of the model drug molecules.

Regarding `CN(C)C(SCc1ccc2c(c1)-c1nc-2nc2[n-]c(nc3nc(nc4[n-]c(n1)c1ccc(CSC(N(C)C)=[N+](C)C)cc41)-c1ccc(CSC(N(C)C)=[N+](C)C)cc1-3)c1ccc(CSC(N(C)C)=[N+](C)C)cc21)=[N+](C)C.[Cl-].[Cl-].[Cl-].[Cl-].[Cu+2]` [Alcian Blue, alcian blue 8GX], the “release percentage at the 15-minute time point” value is “considerably high release percentage”. Also, the “n value from the Korsmeyer-Peppas equation of model drug release profile” value (shortened to “n value”) (Fiber) is reported as 0.1104. For the same compound, under “Film”, the “n value” value amounted to 0.1507.
For the compound `CN(C)c1ccc(C(=C2C=CC(=[N+](C)C)C=C2)c2ccc(N(C)C)cc2)cc1` [Crystal Violet, Crystal violet], the “n value” value is on record as 0.353 (Fiber) and 0.1184 (Film).
For the compound `O=C1/C(=C2\Nc3ccc(S(=O)(=O)[O-])cc3C2=O)Nc2ccc(S(=O)(=O)[O-])cc21.[Na+].[Na+]` [Indigo Carmine, indigo carmine], the “release percentage at the 15-minute time point” value was “considerably high release percentage”. Besides, under “Fiber”, the “n value” value was 0.1318. Moreover, under “Film”, the “n value” value was 0.430. Where the note is “films, in contrast to the fibers”, the “release profile at the earlier points” value is on record as “dramatic drop”.
On to `CCN(CC)c1ccc2c(-c3ccccc3C(=O)O)c3ccc(=[N+](CC)CC)cc-3oc2c1.[Cl-]` [Rhodamine B, rhodamine B], for which the “n value” value reads like this: (Fiber) 0.337; (Film) 0.203.
For `CO[C@H]1/C=C/O[C@@]2(C)Oc3c(C)c(O)c4c(O)c(c(/C=N/N5CCN(C)CC5)c(O)c4c3C2=O)NC(=O)/C(C)=C\C=C\[C@H](C)[C@H](O)[C@@H](C)[C@@H](O)[C@@H](C)[C@H](OC(C)=O)[C@@H]1C` [Rifampin, rifampin] the same measures were 0.392 and 0.284.

The record behind these values is patent publication US11549198B2, “Method of producing non-woven protein fibers” (Rowan University, priority 2017, dated 2023).
